The test system of data set [1] is H9/HIV-IIIB in HT46c cells. Briefly: Anti-HIV assay in vitro: inhibition of HIV replication, focal immunoassay (reduction in foci). The class given is cell-based, HIV-1. As to conditions: for anti-HIV activity: in words, tested at 0.01, 0.1, 1.0, 5.0 and 20 μM; for reduction in foci at 5 μM: GIL compared with BDGA. The method, then:
1,1'-bisdeoxygossypol (BDG), 1,1'-bisdeoxygossylic acid (BDGA), 8-deoxyhemigossypol (DHG) and 8-deoxyhemigossylic acid (DHGA) were synthesized and tested for their ability to inhibit the replication of HIV in vitro. The EC50 for BDGA was <1 μM and its threshold cytotoxicity was approximately 20 μM. […] Like BDGA, the Ec50 for GIL was <1 μM. […] BDG, on the other hand, was ineffective at 1 μM and destroyed >80% of the cell monolayer at 5 μM.
(§1) The anti-HIV assay used was based on a published procedure (J.Virol. 62:3779-3788, 1988) using HT46c (HeLaT4+) cells as host cells for the H9/HIV-III8 strain of the HIV-1 virus. The cells were seeded into 6-well plates, 5×10^4 cells/well, in RPMI 1640 with 10% FBS and allowed to attach overnight. After treatment of the wells with DEAE-dextran, stock virus was added at a concentration that produces 100 -200 foci/well on day 3 in positive control wells. Test compounds were added, and plates incubated for 3 days at 37° C., 5% CO2. Monolayers were fixed with methanol and wells analyzed with a focal immunoassay (FIA). The primary reagent used in the FIA was a polyclonal antibody preparation of sera from AIDS patients. The secondary reagent was a goat anti-human IgG antibody tagged with horseradish peroxidase. The substrate was 3-amino-9-ethylcarbazole in sodium acetate buffer with hydrogen peroxide. Each compound was tested at concentrations of 0.01, 0.1, 1.0, 5.0 and 20 μM. GIL was tested as a standard for comparison.

In another data set the test system is HT46c (HeLaT4+) cells. In words: Cytotoxicity in the anti-HIV assay: detectable changes in cell morphology or loss of monolayer adherence to the culture plate. The class given is cell-based. As to conditions: for cytotoxicity: in words. The protocol:
(§2) 1,1'-bisdeoxygossypol (BDG), 1,1'-bisdeoxygossylic acid (BDGA), 8-deoxyhemigossypol (DHG) and 8-deoxyhemigossylic acid (DHGA) were synthesized and tested for their ability to inhibit the replication of HIV in vitro.
as §1, with “After” for “The anti-HIV assay used was based on a published procedure (J.Virol. 62:3779-3788, 1988) using HT46c (HeLaT4+) cells as host cells for the H9/HIV-III8 strain of the HIV-1 virus. The cells were seeded into 6-well plates, 5×10^4 cells/well, in RPMI 1640 with 10% FBS and allowed to attach overnight. After”

Assay in data set [2]: as above
The class given is cell-based. As to conditions: human, ht46c cells; below threshold = no detectable changes in cell morphology or loss of monolayer adherence. The method, then: as §2
as §1, with “After” for “The anti-HIV assay used was based on a published procedure (J.Virol. 62:3779-3788, 1988) using HT46c (HeLaT4+) cells as host cells for the H9/HIV-III8 strain of the HIV-1 virus. The cells were seeded into 6-well plates, 5×10^4 cells/well, in RPMI 1640 with 10% FBS and allowed to attach overnight. After”

The subject of a further data set is HIV. As to conditions: previously found, in vitro; cited from earlier work.
The conditions of data set [3]: previously shown in similar assays (Pharmacol.Res.); cited from earlier work.

“Also recorded” adds a separate entry of the source.

For the compound `Cc1cc2c(C(C)C)c(O)c(O)c(C=O)c2cc1-c1cc2c(C=O)c(O)c(O)c(C(C)C)c2cc1C` [BDG, 6,6',7,7'-Tetrahydroxy-3,3'-dimethyl-5,5'-bis(1-methylethyl)[2,2'-binaphthalene]-8,8'-dicarboxaldehyde], in data set [1] (1 μM), the “anti-HIV activity at 1 μM” value is recorded as “ineffective”. The anti-HIV activity result in data set [1] is recorded as “less effective against HIV”. The “destruction of the cell monolayer at 5 μM” value in the data set with HT46c (HeLaT4+) cells (5 μM) is listed as above 80%. Besides, in the data set on HT46c (HeLaT4+) cells, the cytotoxicity result is reported as “much more cytotoxic than BDGA”.

Consider `Cc1cc2c(C(C)C)c(O)c(O)c(C(=O)O)c2cc1-c1cc2c(C(=O)O)c(O)c(O)c(C(C)C)c2cc1C` [BDGA, 6,6',7,7'-Tetrahydroxy-3,3'-dimethyl-5,5'-bis(1-methylethyl)[2,2'-binaphthalene]-8,8'-dicarboxylic Acid], for which, in data set [1], the “reduction in foci at 5 μM” value is “same reduction in foci” and the anti-HIV activity result is on record as “approximately as effective as GIL”. Further, the “toxicity at 5.0 μM” value with HT46c (HeLaT4+) cells was “No toxicity was noted”. Besides, the “monolayer destruction at 20 μM” value with HT46c (HeLaT4+) cells (20 μM) is recorded as “Some signs of monolayer destruction”.

For the compound `Cc1ccc2c(C=O)c(O)c(O)c(C(C)C)c2c1` [DHG, 2,3-dihydroxy-6-methyl-4-(1-methylethyl)-1-naphthaldehyde], the anti-HIV activity entry in data set [1] is reported as “some anti-HIV activity; also recorded: less active”. This compound returned an MCC in data set [2] of 54 µM. Moreover, in the data set with HT46c (HeLaT4+) cells, the cytotoxicity entry was “more cytotoxic”.

For the compound `Cc1ccc2c(C(=O)O)c(O)c(O)c(C(C)C)c2c1` [DHGA, 2,3-dihydroxy-6-methyl-4-(1-methylethyl)-1-naphthoic Acid], the “effect on viral replication at 20 μM” value in data set [1] (even at 20 μM) was “no observable effect on viral replication”. For the same compound, the anti-HIV activity entry in data set [1] is “ineffective against HIV”. Moreover, the “effect on cell morphology at 20 μM” value in the data set with HT46c (HeLaT4+) cells (even at 20 μM) is given as “no observable effect on viral replication or cell morphology”. In the data set on HT46c (HeLaT4+) cells, the cytotoxicity result is given as “very low cytotoxicity”.

Consider `Cc1cc2c(C(C)C)c(O)c(O)c3c2c(c1-c1c(C)cc2c(C(C)C)c(O)c(O)c4c2c1OC4=N)OC3=N` [GIL, gossylic iminolactone], for which the “reduction in foci at 5 μM” value in data set [1] is “same reduction in foci”. Moreover, the “toxicity at 5.0 μM” value in the data set on HT46c (HeLaT4+) cells is reported as “No toxicity was noted”. Also, the “anti-HIV activity relative to gossypol” value in the data set with HIV is “more active; also recorded: more effective than gossypol”. In data set [3], the “cytotoxicity relative to gossypol” value is reported as “less cytotoxic than gossypol”.
